Assays:
[1] = biological target: T1, human blood coagulation factor XIa (Homo sapiens, UniProt P03951); test: Inhibitory activity on human blood coagulation factor XIa (chromogenic substrate S-2366); assay type: biochemical; conditions: chromogenic substrate S-2366, 37° C.; read-out: FXIa inhibitory activity IC50
T1 construct: human blood coagulation factor XIa (Haematologic Technologies Inc.); purchased Haematologic Technologies Inc
Description: Inhibitory activities of the compound of the present invention on human blood coagulation factor XIa, factor VIIa, factor IXa, factor Xa, factor XIIa, plasma kallikrein and thrombin were evaluated. A chromogenic substrate solution was added to each of enzyme solutions, the absorbance at 405 nm was measured continuously at 37° C. for 5 minutes at intervals of 15 seconds, and the decomposition rate of each of substrates (mOD/min) was calculated. The half maximal (50%) inhibitory concentration (IC50) of the compound of the present invention on each of the enzymes was calculated by linear regression by using least-squares method from the concentration of the compound of the present invention which was converted in terms of natural logarithm and the rate of enzyme inhibition calculated according to the following equation.
The rate of enzyme inhibition (%) of the compound of the present invention was calculated by using the following equation: Rate of enzyme inhibition (%)=100×{(Cont(e)−BL(e))−(Comp(e)−BL(e))/(Cont(e)−BL(e))}
Cont (e): Decomposition rate of substrate (mOD/min) when enzyme solution and substrate solution were added to physiological saline containing 5% dimethyl sulfoxide
Comp (e): Decomposition rate of substrate (mOD/min) when enzyme solution and substrate solution were added to physiological saline containing 5% dimethyl sulfoxide and the compound of the present invention
The inhibitory activity on human blood coagulation factor XIa (Haematologic Technologies Inc.) was measured by using the enzyme solution adjusted to 0.1 U/mL by a buffer solution containing 300 mM of NaCl, 10 mM of KCl, 2 mg/mL of PEG 6000 and 100 mM of HEPES-NaOH (pH 7.4) as well as S-2366 (pyroglu-Pro-Arg-pNA, CHROMOGENIX) adjusted to 1 mM by distilled water.

[2] = Pharmacokinetic (PK) tests in rats; assay type: in vivo
Description: The compound of the present invention was administered to fasted male Crj:CD(SD) rats by intravenous injection as a single intravenous dose of 0.1 mg/kg (vehicle: 20% HP-β-CD solution) and by forced oral dosage as a dose of 1 mg/kg per os (vehicle: 0.5% methylcellulose solution). Blood samples were collected from cervical vein into heparinized syringes at 0.08, 0.25, 0.5, 1, 3 or 7 hours after administration by intravenous injection or 0.08, 0.25, 0.5, 1, 2, 4, 6, 8 or 24 hours after oral administration. Plasma was obtained by centrifugation, and plasma was stored at −20° C. until measurement of plasma concentration.
In order to measure the plasma concentration of the compound of the present invention, the plasma sample was subjected to deproteinization by using acetonitrile, was filtrated by using a filter, and thereafter, was diluted with purified water, and then was analyzed by LC/MS/MS. A column for analysis (Shim-pack XR-ODSII, 2.0 mm×75 mm, 2.2 μm) and mobile phases (0.1% formic acid in water and 0.1% formic acid in acetonitrile, flow rate: 0.5 mL/min) were used. The system was used by detection of cations in the Multiple Reaction Monitoring (MRM) mode.
The area under the blood concentration versus time curve (AUC) and the bioavailability (BA) of the compound of the present invention were calculated. In addition, as indices of the maintaining time of the anticoagulation activity in the case of oral administration, AUC/APTT×2, which is obtained by dividing AUC by APTT×2, and C8h/APTT×2, which is obtained by dividing C8h (the plasma concentration at 8 hours after administration) by APTT×2, were calculated.
In addition, the period of time when the compound concentration in plasma of the compound of the present invention exceeded APTT×2 (the APTT×2 maintaining time) was calculated from the change in the compound concentration in plasma in the case when the compound of the present invention was orally administered at a dose of 1 mg/kg. The longer the APTT×2 maintaining time is, the longer the period of time is when the anticoagulation activity is maintained after oral administration.

standard human plasma = test: Activated partial thromboplastin time (APTT) in standard human plasma; assay type: biochemical; conditions: concentration required for doubling the coagulation time vs vehicle (1% DMSO)
Description: Activated partial thromboplastin time (APTT) and prothrombin time (PT) were measured by using a fully automatic device for measuring blood coagulation (CA-1500, Sysmex Corporation). On APTT or PT measurement, standard human plasma for the blood coagulation tests (Siemens Healthcare Diagnostics GmbH) was mixed with a diluted solution of the compound of the present invention, and thereafter, APTT reagent (Siemens Healthcare Diagnostics GmbH) and 0.02 M of calcium chloride or PT reagent (Siemens Healthcare Diagnostics GmbH) were automatically added to the mixture in order to initiate clot formation. The anticoagulation activity (APTT×2 or PT×2) of the compound of the present invention was expressed as a concentration required for doubling the coagulation time in the vehicle (1% DMSO) group. APTT×2 or PT×2 was determined by plotting the concentration of the compound of the present invention against a twofold increase in the coagulation time.

T1 sequence (P03951 388-625 limits assumed): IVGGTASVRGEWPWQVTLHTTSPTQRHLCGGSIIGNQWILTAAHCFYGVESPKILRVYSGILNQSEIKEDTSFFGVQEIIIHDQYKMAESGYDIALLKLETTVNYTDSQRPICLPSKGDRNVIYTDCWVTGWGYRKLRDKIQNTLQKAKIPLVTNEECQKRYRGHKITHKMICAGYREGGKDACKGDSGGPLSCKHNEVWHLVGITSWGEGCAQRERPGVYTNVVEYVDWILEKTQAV
T1 sequence (P03951 19-387 partner limits assumed): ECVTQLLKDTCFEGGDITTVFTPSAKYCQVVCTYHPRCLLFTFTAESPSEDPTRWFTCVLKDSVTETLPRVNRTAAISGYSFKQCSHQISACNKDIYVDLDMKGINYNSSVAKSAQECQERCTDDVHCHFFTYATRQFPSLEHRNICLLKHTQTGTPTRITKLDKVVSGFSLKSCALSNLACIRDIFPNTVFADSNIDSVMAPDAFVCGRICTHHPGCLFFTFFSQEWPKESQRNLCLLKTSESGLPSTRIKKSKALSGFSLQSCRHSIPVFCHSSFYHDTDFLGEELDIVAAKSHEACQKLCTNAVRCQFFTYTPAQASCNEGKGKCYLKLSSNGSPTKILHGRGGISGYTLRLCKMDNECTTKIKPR

IC50 [1]: 4.4 nM | concentration at 8 h ([2]; male, Crj:CD(SD), rat, plasma, oral, rats, 1 mg/kg per os, 8 hours after administration, read-out: Plasma concentration C8h): 1100 nM | AUC ([2]; rat, plasma, po, fasted male Crj:CD(SD) rats, 1 mg/kg per os): 23 µM·h | APTT × 2 maintaining time ([2]; rats, 1 mg/kg orally, period when plasma concentration exceeded APTT×2): <2 h | C8h/APTT × 2 ([2]; rats, 1 mg/kg per os, C8h divided by APTT×2): 0.52
Structure (SMILES): Nc1ccc(-c2nc(Cl)c([C@@H]3CCc4cc(-c5cc(Cl)ccc5-n5cnnn5)cc(=O)n43)[nH]2)c(F)n1 [Comparative Example 2 (3), (3S)-3-[2-(6-amino-2-fluoro-3-pyridinyl)-4-chloro-1H-imidazol-5-yl]-7-[5-chloro-2-(1H-tetrazol-1-yl)phenyl]-2,3-dihydro-5(1H)-indolizinone]
APTT × (standard human plasma): 2.1 µM
